The text below walks through data of patent US6855710B2, “Substituted indolines with an inhibitory effect on various kinases and complexes of CDKs” (Boehringer Ingelheim Pharma KG, priority 1998, dated 2005).

As to `CCC(=O)N(CC(=O)NC)c1ccc(N/C(=C2\C(=O)Nc3ccccc32)c2ccccc2)cc1` [Example 358, (Z)-3-{1-[4-(N-methylaminocarbonylmethyl-N-propionyl-amino)-phenylamino]-1-phenyl-methylidene}-2-indolinone], the melting point is 268 °C.
With `CN(C)C(=O)CN(c1cccc(N/C(=C2\C(=O)Nc3ccccc32)c2ccccc2)c1)S(C)(=O)=O` [Example 321, (Z)-3-{1-[3-(N-dimethylaminocarbonylmethyl-N-methylsulphonyl-amino)-phenylamino]-1-phenyl-methylidene}-2-indolinone] the figure was 213 to 216 °C; with `CCCC(=O)N(CCN(C)C)c1ccc(N/C(=C2\C(=O)Nc3ccc([N+](=O)[O-])cc32)c2ccccc2)cc1` [Example 331, (Z)-3-{1-[4-(N-(2-dimethylaminoethyl)-N-propylcarbonyl-amino)-phenylamino]-1-phenyl-methylidene}-5-nitro-2-indolinone], 275 to 277 °C; with `CN(C)Cc1cccc(N/C(=C2\C(=O)Nc3ccc([N+](=O)[O-])cc32)c2ccccc2)c1` [Example 107, (Z)-3-[1-(3-dimethylaminomethyl-phenylamino)-1-phenyl-methylidene]-5-nitro-2-indolinone], 214 to 217 °C.
`CN(CC(=O)N(C)c1ccc(N/C(=C2\C(=O)Nc3ccccc32)c2ccccc2)cc1)Cc1ccccc1` [Example 370, (Z)-3-{1-[4-(N—(N-benzyl-N-methyl-aminomethylcarbonyl)-N-methyl-amino)-phenylamino]-1-phenyl-methylidene}-2-indolinone] displayed a melting point of 195 to 197 °C.
With `CN(C)C(=O)C1CCN(CCc2ccc(N/C(=C3\C(=O)Nc4ccc([N+](=O)[O-])cc43)c3ccccc3)cc2)CC1` [Example 264, (Z)-3-{1-[4-(2-(4-dimethylaminocarbonyl-piperidino)-ethyl)-phenylamino]-1-phenyl-methylidene}-5-nitro-2-indolinone] the figure was 288 °C (dec.).
As for `O=C(O)COc1ccc(N/C(=C2\C(=O)Nc3ccccc32)c2ccccc2)cc1` [Example 290, (Z)-3-{1-[4-(carboxymethyloxy)-phenylamino]-1-phenyl-methylidene}-2-indolinone], the melting point lay within 238 to 240 °C.
The compound `CCCC(=O)N(CCN(C)C)c1ccc(N/C(=C2\C(=O)Nc3ccccc32)c2ccccc2)cc1` [Example 343, (Z)-3-{1-[4-(N-(2-dimethylaminoethyl)-N-propylcarbonyl-amino)-phenylamino]-1-phenyl-methylidene}-2-indolinone] registered a melting point of 268 to 270 °C.
`CN(C)CCNc1ccc(N/C(=C2\C(=O)Nc3ccc([N+](=O)[O-])cc32)c2ccccc2)cc1` [Example 326, (Z)-3-{1-[4-(2-dimethylamino-ethylamino)-phenylamino]-1-phenyl-methylidene}-5-nitro-2-indolinone]: the melting point lay in the range of 227 to 229 °C.
Compound `COC1CCN(Cc2ccc(N/C(=C3\C(=O)Nc4ccc([N+](=O)[O-])cc43)c3ccccc3)cc2)CC1` [Example 171, (Z)-3-{1-[4-(4-methoxypiperidinomethyl)-phenylamino]-1-phenyl-methylidene}-5-nitro-2-indolinone] had a melting point of 204 to 206 °C.
Compound `Cl.O=C1Nc2ccc([N+](=O)[O-])cc2/C1=C(/Nc1ccc(CNCc2ccccc2)cc1)c1ccccc1` displayed a melting point of 298 to 300 °C.
The compound `COCC(=O)NCc1ccc(N/C(=C2\C(=O)Nc3ccccc32)c2ccccc2)cc1` [Example 76, (Z)-3-[1-(4-methoxymethylcarbonylaminomethyl-phenylamino)-1-phenyl-methylidene]-2-indolinone] had a melting point of 178 to 180 °C.
`COCC(=O)N(CCN(C)C)c1ccc(N/C(=C2\C(=O)Nc3ccccc32)c2ccccc2)cc1` [Example 451, (Z)-3-[1-(4-(N-(2-dimethylaminoethyl)-N-methoxymethylcarbonyl-amino)-phenylamino)-1-phenyl-methylidene]-2-indolinone] gave a melting point of 246 to 249 °C.

The term melting point denotes the temperature of the solid-liquid transition.
